# Tests used:
# [1] = test system: CXCR2; details: cited from earlier work
# Source text: To further evaluate pharmacodynamics, we characterized CXCR2 inhibition as a surrogate for the delivery of SB225002. Tumors from all groups were fixed and paraffin embedded for immunohistochemistry staining. […] Furthermore, the inhibition of angiogenesis has been cited as a contributing factor to th ...
# [2] = test system: Ki67; experiment: Ki67 staining of tumor sections (cell proliferation); assay type: in vivo, mouse (athymic nude); details: ImageJ; p < 0.01
# Procedure: Tumor sections were blocked for 1 h in blocking buffer, and incubated with FITC-conjugated anti-CD31 (BD biosciences, 1:100, 20 min) then anti-rat secondary (1:250, 20 min), or anti-Ki67 (Abcam, 1:250, 20 min) then anti-rabbit secondary (1:250, 20 min). Images were collected using ZEISS LSM-880 Confocal Laser Scanning Microscope (Carl Zeiss Meditec, Inc., Jena, Germany). Mander’s correlation coefficients were determined using the JACoP plugin in ImageJ (National Institute of Health, Bethesda, MD, USA) for the colocalization analysis. To characterize CD31 and Ki67 expression, the area fraction of the positive pixels was measured for each image using the Measurement Tool in ImageJ. Section averages were entered into Prism to find overall means for each treatment group and tested for statistical significance between groups using the Student’s t-test.
# The drug dosage was calculated for each treatment to achieve the same weekly amount of Sb225002 given per animal. Tumor volume was measured with calipers twice weekly until day 19, at which time the tumors were harvested for cell proliferation (Ki67) and angiogenesis (CD31) analysis, and CXCR2 IHC staining.
# [3] = test system: KPC mice; details: cited from earlier work
# Source text: CXCR2 antagonists have been explored in non-cancer lung diseases (e.g., NCT01255592, NCT01006616) and in certain cancers such as castration-resistant prostate cancer (NCT03177187) and squamous cell carcinoma of the head and neck (NCT02499328).
# [4] = all dose levels up to 240 mg; cited from earlier work
# Source text: While mounting evidence points to a role of bitter taste receptors in cancer epithelial cells and in Tuft cells, this report, is to our knowledge, the first indication that TAS2R9 is expressed on CAFs. The fact that TAS2R9 is overexpressed in 7.33% of human PDAC tissue, and that its expression in pancreatic CAFs is 57-fold higher than in the human dermal fibroblast raises the interesting question of what role TAS2R9 may play in CAFs. In particular, the revelation that TAS2R9 mRNA expression ...
# [5] = test system: CAFs isolated from the stroma of PDAC patients; details: cited from earlier work; for Specificity and selectivity for CAFs: CAFs isolated from the stroma of PDAC patients
# [6] = test system: PDAC patient-derived CAFs (TAS2R9); experiment: Phage display-based pulldown from PDAC patient-derived CAFs with MS/MS identification; assay type: binding, human; details: SDS-PAGE, compared with WT M13KE phage and phAPPIMSV
# Procedure: Thus, we hypothesized that their binding partners could serve as potential cellular markers and therapeutic targets for CAFs. Using a phage display-based functional proteomics approach, wild-type (WT) M13KE phage or phage displaying CAF selective peptides (phHTTIPKV and phAPPIMSV) were incubated with PDAC patient-derived CAFs allowing the phage to serve as “bait.” Phage were chemically modified to crosslink to their cell surface binding partner, then phage pull-down samples were resolved via SDS-PAGE. […] In-proteo ELISA experiments were performed to evaluate the specific binding of phHTTIPKV to recombinant human TAS2R9 (rhTAS2R9). Phage displaying KTLLPTP (phKTLLPTP), a PDAC epithelial cell-specific peptide, served as a negative control. […] Therefore, we pursued validation of TAS2R9 as HTTIPKV’s target and as a novel CAF-selective cell surface marker.
# (§1) Figure 1 TAS2R9 expression in CAFs isolated from human PDAC. (A) Phage pulldowns from PDAC patient-derived CAFs by the M13Ke (lane 1) and CAF-specific phages, phAPPIMSV and phHTTIPKV (lane 2 and 3). […] (B) 4 × 10^9 pfu phHTTIPKV and a PDAC specific phage, phKTLLPTP, were applied to rhTAS2R9 to determine the absorbance of phage binding to rhTAS2R9 at 650 nm. The absorbance of both phage were normalized to the absorbance detected from rhTAS2R9 bound to the wild-type M13Ke phage. n = 3, * p < 0.05. […]
# [7] = test system: recombinant human TAS2R9 (rhTAS2R9); experiment: Phage ELISA on recombinant human TAS2R9 (in-proteo ELISA); assay type: binding; details: 4 × 10^9 pfu phage; absorbance 650 nm, 35 min after TMB; normalized to M13KE; 1 h RT; n = 3, p < 0.05
# Procedure: Thus, we hypothesized that their binding partners could serve as potential cellular markers and therapeutic targets for CAFs. Using a phage display-based functional proteomics approach, wild-type (WT) M13KE phage or phage displaying CAF selective peptides (phHTTIPKV and phAPPIMSV) were incubated with PDAC patient-derived CAFs allowing the phage to serve as “bait.” Phage were chemically modified to crosslink to their cell surface binding partner, then phage pull-down samples were resolved via SDS-PAGE. […] In-proteo ELISA experiments were performed to evaluate the specific binding of phHTTIPKV to recombinant human TAS2R9 (rhTAS2R9). Phage displaying KTLLPTP (phKTLLPTP), a PDAC epithelial cell-specific peptide, served as a negative control. […]
# as §1, with “PDAC.” for “PDAC. (A) Phage pulldowns from PDAC patient-derived CAFs by the M13Ke (lane 1) and CAF-specific phages, phAPPIMSV and phHTTIPKV (lane 2 and 3).”
# About 100 μL of 0.1 μg/mL rhTAS2R9 (Novus Biological, Littleton, CO, USA) was plated in 96-well plates overnight at 4 °C. […] The absorbance was measured on a microplate reader at 650 nm at 35 min post addition of TMB
# [8] = target: T1, recombinant human TAS2R9 (rhTAS2R9) (human) (UniProt Q9NYW1); experiment: ELISA; 0.1 ug/mL rhTAS2R9 coated on 96-well plates overnight at 4 °C, 5% milk block, 40 uL phage at 1 x 10^8 pfu/uL for 1 h at room temperature, HRP anti-M13 antibody, absorbance at 650 nm; normalised to wild-type M13KE phage
# T1 sequence (Q9NYW1 whole entry, looked up): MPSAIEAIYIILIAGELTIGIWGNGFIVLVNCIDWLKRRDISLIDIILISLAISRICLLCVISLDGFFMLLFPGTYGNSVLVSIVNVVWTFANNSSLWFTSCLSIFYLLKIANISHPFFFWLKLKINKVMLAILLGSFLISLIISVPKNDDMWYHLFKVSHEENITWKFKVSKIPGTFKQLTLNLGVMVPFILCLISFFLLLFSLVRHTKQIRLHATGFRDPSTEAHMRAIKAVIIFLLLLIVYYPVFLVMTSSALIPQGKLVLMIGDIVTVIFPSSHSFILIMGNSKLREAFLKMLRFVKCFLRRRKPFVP
molecule,measurement,setting,value
O=C(Nc1ccc([N+](=O)[O-])cc1O)Nc1ccccc1Br [SB225002],Contribution to anti-tumor effects: angiogenesis,[1],inhibition of angiogenesis has been cited as a contributing factor to the anti-tumor effects
same,Ki67+ area fraction (cell proliferation),[2],significant reduction in Ki67+ area fraction
same,Survival of KPC mice,[3],profoundly prolong survival in KPC mice
"CC(=O)[O-].CC[N+](CC)(CC(=O)Nc1c(C)cccc1C)Cc1ccccc1 [pan-TAS2R agonist, Denatonium Acetate]",Tolerability in phase one clinical trial,[4],well tolerated at all dose levels up to 240 mg
APPIMSV,Specificity and selectivity for CAFs,[5],high specificity and selectivity for CAFs
HTTIPKV,Specificity and selectivity for CAFs,[5],high specificity and selectivity for CAFs
same,Selectivity for CAFs in vitro and in vivo,[5]; signature database of 56 cell lines and tissues,selective for CAFs across in vitro and in vivo experiments
same,Unique band in phage pulldown,[6],presence of a unique band
HTTIPKV [phHTTIPKV],Increase in specific binding to rhTAS2R9 compared to phKTLLPTP,[7],2.72 fold
HTTIPKV [phage displaying HTTIPKV (phHTTIPKV)],fold specific binding against phKTLLPTP (each normalised to M13KE phage),[8],2.72 fold

# — paper PMC10058050, “A Bitter Taste Receptor as a Novel Molecular Target on Cancer-Associated Fibroblasts in Pancreatic Ductal Adenocarcinoma” (Pharmaceuticals, 2023)
